Laboratory results from patent US20260083709A1, “COMBINATION PHARMACOLOGICAL INTERVENTIONS FOR MULTIPLE MECHANISMS OF OBSTRUCTIVE SLEEP APNEA” (APNIMED, INC.(DELAWARE), priority 2019, published 2026).

Key:
OSA [1] = assay: Acetazolamide effect on loop gain and OSA severity; parameters: species or system human; details: in vivo
Description: Residual events after anatomical interventions can arise as an effect of elevated loop gain. […] Acetazolamide is a respiratory stimulant used in healthy adults at high-altitude (where it augments and stabilizes respiration) and has additionally been administered safely long-term for glaucoma and heart failure.

OSA [2] = details: agents administered separately (N=9); cited from earlier work

## CC(=O)Nc1nnc(S(N)(=O)=O)s1 [acetazolamide]
OSA [1]
  reduction of OSA severity (AHI): ~50%
  reduction of loop gain: ~50%

## CNCC[C@@H](Oc1ccccc1C)c1ccccc1 [atomoxetine, Atomoxetine]
OSA [2]
  effect on OSA severity, agents administered separately: minimal effect

## CCN(CC)CC#CCOC(=O)C(O)(c1ccccc1)C1CCCCC1 (stereo not shown) [oxybutynin]
OSA [2]
  effect on OSA severity, agents administered separately: minimal effect
